Drawing on US20230000842A1, “METHODS OF TREATING CARTILAGE DISORDERS THROUGH INHIBITION OF CLK AND DYRK” (SAMUMED, LLC, priority 2019, published 2023), this text covers EC50 and Emax for 31 compounds.

SMILES strings stand for the structures.

The target of one assay is CLK2 kinase (Homo sapiens, UniProt P49760). Briefly: CLK2 kinase activity assay (Z-lyte FRET).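 Note: FRET read-out as coumarin to fluorescein emission ratio, unphosphorylated peptide as 0% and phosphorylated peptide as 100% controls, duplicate reactions, non-linear regression fit of dose-response curves.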 The following applies: Z-lyte Ser/Thr 6 peptide, 60 μM ATP, 1 h at room temperature. It is filed as biochemical.
The target in a further assay is CLK3 kinase (Homo sapiens, UniProt P49761). Briefly: CLK3 kinase activity assay (Z-lyte FRET).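 Note: kinase activity read as coumarin/fluorescein emission ratio by FRET, unphosphorylated peptide as 0% and phosphorylated peptide as 100% control, values from non-linear regression of dose-response curves.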 The assay is classed as biochemical. The following applies: Z-lyte Ser/Thr 18 peptide, 156 μM ATP, 1 h at room temperature.
In assay [1] the test system is primary human mesenchymal stem cells (hMSCs). Briefly: Chondrogenesis screening using primary human mesenchymal stem cells. The assay is classed as cell-based. The following applies: Homo sapiens, Mesenchymal stem cells, hMSC chondrogenesis; for EC50: concentration required to induce 50% levels of chondrogenesis with TGF-β3 as positive control, read-out: Conc (nM) of 50% TGF-β3 activity; for Emax: maximum activity relative to TGF-β3 (10 ng/mL) positive control, read-out: Max. Activity as % TGF-β3 activity. In outline: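 Primary hMSCs at passage 3–6 were treated across compound concentrations, with TGF-β3 as positive control. Chondrogenic nodule area per well was normalized to 3 DMSO wells on the same plate (fold over DMSO, 2–3 replicates). EC50, maximum activity and the dose reaching it were derived.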

Assay [2] has as its system Wnt pathway activity (SW480 colon carcinoma cells stably expressing the Sp5-Luc reporter). Briefly: Wnt pathway activity screening assay (Sp5-Luc reporter gene assay). The following applies: Homo sapiens, SW480, Table 4; SW480 cells stably expressing Sp5-Luc reporter, 10-point dose-response from 10 μM, 36 to 48 hours. (In a reporter assay the amount or activity of a reporter protein is the signal.)

Chain of CLK2 kinase (P49760 whole entry): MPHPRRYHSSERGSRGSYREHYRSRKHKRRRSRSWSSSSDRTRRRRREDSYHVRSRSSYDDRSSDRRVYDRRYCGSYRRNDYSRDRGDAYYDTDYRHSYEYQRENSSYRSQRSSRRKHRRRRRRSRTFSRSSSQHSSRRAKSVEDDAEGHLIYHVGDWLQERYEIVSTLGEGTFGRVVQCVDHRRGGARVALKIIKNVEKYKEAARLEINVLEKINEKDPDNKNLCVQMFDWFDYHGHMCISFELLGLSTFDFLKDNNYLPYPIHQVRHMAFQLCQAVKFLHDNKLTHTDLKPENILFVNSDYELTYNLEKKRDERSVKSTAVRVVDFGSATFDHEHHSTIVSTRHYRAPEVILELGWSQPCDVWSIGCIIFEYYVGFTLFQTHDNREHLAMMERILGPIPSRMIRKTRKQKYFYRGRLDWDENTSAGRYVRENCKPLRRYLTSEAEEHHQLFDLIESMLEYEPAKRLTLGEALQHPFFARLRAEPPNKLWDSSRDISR
Chain of CLK3 kinase (P49761 whole entry): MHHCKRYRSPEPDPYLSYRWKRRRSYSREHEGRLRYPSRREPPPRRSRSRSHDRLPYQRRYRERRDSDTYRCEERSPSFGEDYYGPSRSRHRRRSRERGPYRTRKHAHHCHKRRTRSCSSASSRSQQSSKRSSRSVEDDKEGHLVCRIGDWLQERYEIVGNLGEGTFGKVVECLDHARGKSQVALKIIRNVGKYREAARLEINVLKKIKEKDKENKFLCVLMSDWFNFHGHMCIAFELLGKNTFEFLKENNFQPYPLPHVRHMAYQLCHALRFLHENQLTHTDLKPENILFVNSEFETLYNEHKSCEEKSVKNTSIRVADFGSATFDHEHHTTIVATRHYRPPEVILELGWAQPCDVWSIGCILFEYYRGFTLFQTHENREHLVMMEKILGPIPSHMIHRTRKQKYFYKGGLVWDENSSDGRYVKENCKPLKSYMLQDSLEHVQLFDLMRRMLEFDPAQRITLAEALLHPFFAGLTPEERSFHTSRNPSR

As to `Nc1cncc(-c2ccc3[nH]nc(-c4nc5c(-c6ccccc6F)ccnc5[nH]4)c3n2)c1` [compound 171], the EC50 at CLK2 kinase is 1 nM; on CLK3 kinase it was 34 nM; in assay [1], 10 nM; in assay [2] it was more than 10000 nM. Besides, the Emax in assay [1] was found to be 127%.
The corresponding values for `Cc1ccc(-c2cncc3[nH]c(-c4n[nH]c5cnc(-c6cncc(N)c6)cc45)nc23)s1` [compound 274] are 11 nM, 203 nM, 100 nM, 10.9 nM and 162%.
For `FC1(F)CCN(Cc2cncc(-c3ccc4[nH]nc(-c5cc6cccnc6[nH]5)c4n3)c2)C1` [compound 447], the EC50 was found to be 2 nM on CLK2 kinase, 37 nM at CLK3 kinase, 100 nM in assay [1] and 104 nM in assay [2]. Also, in assay [1], the Emax is 134%.
For `O=C(Nc1cncc(-c2ccc3[nH]nc(-c4nc5c(-c6ccccc6F)cccc5[nH]4)c3n2)c1)C(F)(F)F` [compound 175], the EC50 on CLK2 kinase amounted to 5 nM; on CLK3 kinase, 180 nM; in assay [2], 823 nM. For the same compound, the Emax in assay [1] came out at 40.1%.
Take `CCC(=O)Nc1cncc(-c2ccc3[nH]nc(-c4cc5c(-c6cccc(F)c6)cncc5[nH]4)c3c2)c1` [compound 303]: the EC50 on CLK2 kinase is 15 nM; on CLK3 kinase, 85 nM; in assay [2], 45 nM. In addition, the Emax in assay [1] stood at 33.5%.
`Fc1ccccc1-c1cncc2[nH]c(-c3n[nH]c4ncc(-c5cn[nH]c5)cc34)cc12` [compound 339]: the EC50 at CLK2 kinase came out at 7 nM; at CLK3 kinase, 99 nM; in assay [2], 375 nM. For the same compound, in assay [1], the Emax is 51.1%.
As to `O=C(CC1CCNCC1)Nc1cncc(-c2ccc3[nH]nc(-c4cc5c(-c6ccccn6)cccc5[nH]4)c3n2)c1` [compound 408], the EC50 stood at 2 nM at CLK2 kinase, 32 nM at CLK3 kinase and 1440 nM in assay [2]. The Emax in assay [1] turned out to be 8.03%.
For the compound `CCCCC(=O)Nc1cncc(-c2ccc3[nH]nc(-c4cc5c(N6CCCCC6)cccc5[nH]4)c3n2)c1` [compound 458], the EC50 is 20 nM on CLK2 kinase, 2190 nM at CLK3 kinase, 100 nM in assay [1] and 572 nM in assay [2]. Moreover, in assay [1], the Emax is 68.6%.
For the compound `CC(C)CC(=O)Nc1cncc(-c2ccc3[nH]nc(-c4nc5c(-c6ccc(F)cc6)cncc5[nH]4)c3c2)c1` [compound 163], the EC50 on CLK2 kinase was determined as 32 nM; at CLK3 kinase, 75 nM; in assay [1], 100 nM; in assay [2], 57 nM. Besides, the Emax in assay [1] turned out to be 125%.
For the compound `O=C(Nc1ccnc(C(F)(F)F)c1)c1n[nH]c2ccc(-c3cncc(CN4CCCCC4)c3)cc12` [compound 80], the EC50 was found to be 3 nM on CLK2 kinase, 93 nM on CLK3 kinase, 100 nM in assay [1] and 36.4 nM in assay [2]. Also, in assay [1], the Emax worked out at 69%.
On to `CC(C)(C)CC(=O)Nc1cncc(-c2cnc3[nH]nc(-c4cc5cnccc5[nH]4)c3c2)c1` [compound 424], for which the EC50 at CLK2 kinase is 2 nM; at CLK3 kinase, 47 nM; in assay [2] it was 605 nM. For the same compound, the Emax in assay [1] stood at 7.07%.
`COc1ccc(NC(=O)c2n[nH]c3ccc(-c4cncc(CN5CCCCC5)c4)cc23)cn1` [compound 81]: the EC50 at CLK2 kinase turned out to be 1 nM; at CLK3 kinase, 32 nM; in assay [1], 300 nM; in assay [2] it was 15 nM. The Emax in assay [1] stood at 138%.
For `CN1CCN(c2cccc3[nH]c(-c4n[nH]c5ccc(-c6cncc(CN7CCCCC7)c6)cc45)cc23)CC1` [compound 493], the EC50 at CLK2 kinase was determined as 6 nM; on CLK3 kinase, 912 nM; in assay [1] it was 100 nM; in assay [2], 4970 nM. In addition, the Emax in assay [1] was 198%.
The corresponding values for `O=C(Cc1ccccc1)Nc1cncc(-c2ccc3[nH]nc(-c4nc5c(-c6ccoc6)cncc5[nH]4)c3c2)c1` [compound 234] are 6 nM, 120 nM, 30 nM, 33 nM and 102%.
The corresponding values for `Cn1cc(-c2cc3c(-c4nc5c(-c6cccc(F)c6)nccc5[nH]4)n[nH]c3cn2)cn1` [compound 156] are 10 nM, 1800 nM, 100 nM, 10 nM and 110%.
For the compound `c1cncc(-c2cc3c(-c4nc5c(-c6cccnc6)nccc5[nH]4)n[nH]c3cn2)c1` [compound 182], the figures for the EC50 (at CLK2 kinase; at CLK3 kinase; in assay [2]) were 11 nM, 9840 nM and 28.3 nM, respectively. Moreover, the Emax in assay [1] is 44.5%.
For the compound `CCNCc1cncc(-c2cnc3[nH]nc(-c4nc5c(-c6cccc(F)c6)cccc5[nH]4)c3c2)c1` [compound 134], the EC50 stood at 6 nM at CLK2 kinase, 76 nM on CLK3 kinase and 40.9 nM in assay [2]. In addition, the Emax in assay [1] was determined as 98.7%.
For `c1cncc(-c2ccc3[nH]nc(-c4nc5c(-c6ccoc6)cncc5[nH]4)c3c2)c1` [compound 229], the EC50 on CLK2 kinase worked out at 2 nM; on CLK3 kinase, 44 nM; in assay [1], 100 nM; in assay [2], 45.4 nM. The Emax in assay [1] worked out at 149%.
The corresponding values for `CCCCC(=O)Nc1cncc(-c2cc3c(-c4cc5c(-c6cccnc6)ccnc5[nH]4)n[nH]c3cn2)c1` [compound 351] are 4 nM, 9840 nM, 10 nM, more than 10000 nM and 52.8%.
For the compound `Nc1cncc(-c2cnc3[nH]nc(-c4cc5c(-c6ccncc6)nccc5[nH]4)c3c2)c1` [compound 378], the EC50 on CLK2 kinase was 2 nM; at CLK3 kinase it was 50 nM; in assay [1], 30 nM; in assay [2], more than 10000 nM. Further, the Emax in assay [1] is 53.5%.
In the case of `Nc1cncc(-c2ccc3[nH]nc(-c4nc5c(-c6ccccc6F)cncc5[nH]4)c3n2)c1` [compound 170], the EC50 is 1 nM at CLK2 kinase, 12 nM at CLK3 kinase, 10 nM in assay [1] and more than 10000 nM in assay [2]. For the same compound, the Emax in assay [1] amounted to 98.2%.
The like results for `CC(C)(C)CC(=O)Nc1cncc(-c2ccc3[nH]nc(-c4nc5ccncc5[nH]4)c3c2)c1` [compound 202] were, in that order, 2 nM, 65 nM, 100 nM, 21 nM and 152%.
As for `CC(C)(C)C(=O)Nc1cncc(-c2ccc3[nH]nc(-c4cc5c(-c6ccncc6)ccnc5[nH]4)c3c2)c1` [compound 390], the EC50 was 11 nM on CLK2 kinase, 137 nM at CLK3 kinase and more than 10000 nM in assay [2]. For the same compound, in assay [1], the Emax was 44.4%.
In the case of `CC(C)CC(=O)Nc1cncc(-c2cnc3[nH]nc(-c4cc5c(-c6cccnc6)ccnc5[nH]4)c3c2)c1` [compound 352], the results for the EC50 (on CLK2 kinase; on CLK3 kinase; in assay [2]) were 3 nM, 9840 nM and more than 10000 nM, respectively. The Emax in assay [1] amounted to 43.5%.
The corresponding values for `O=C(Nc1cncc(-c2ccc3[nH]nc(-c4cc5c(-c6cccnc6)cncc5[nH]4)c3c2)c1)c1ccccc1` [compound 358] are 7 nM, 71 nM, more than 10000 nM and 68.5%.
Consider `CCCCC(=O)Nc1cncc(-c2ccc3[nH]nc(-c4nc5c(-c6cc(F)cc(NCCN(C)C)c6)cncc5[nH]4)c3n2)c1` [compound 279], for which the EC50 is 2 nM on CLK2 kinase, 93 nM on CLK3 kinase, 10 nM in assay [1] and more than 10000 nM in assay [2]. In assay [1], the Emax was 64.7%.
As to `CC(C)C(=O)Nc1cncc(-c2cc3c(-c4cc5cnccc5[nH]4)n[nH]c3cn2)c1` [compound 419], the EC50 is 1 nM at CLK2 kinase, 16 nM at CLK3 kinase, 30 nM in assay [1] and 399 nM in assay [2]. For the same compound, the Emax in assay [1] was determined as 61.2%.
For `CN1CCN(c2ccnc3[nH]c(-c4n[nH]c5cnc(-c6cncc(CNCC7CCCC7)c6)cc45)cc23)CC1` [compound 489], the EC50 on CLK2 kinase is 19 nM; on CLK3 kinase, 340 nM; in assay [1], 300 nM; in assay [2], more than 10000 nM. For the same compound, in assay [1], the Emax came to 150%.
For the compound `O=C(Nc1cncc(-c2cc3c(-c4nc5c(-c6cccs6)nccc5[nH]4)n[nH]c3cn2)c1)C1CC1` [compound 257], the EC50 on CLK2 kinase was 7 nM; at CLK3 kinase it was 115 nM; in assay [2] it was 22.2 nM. For the same compound, in assay [1], the Emax amounted to 68.3%.
Regarding `CC(C)(C)C(=O)Nc1cncc(-c2cc3c(-c4nc5c(-c6ccc(F)s6)nccc5[nH]4)n[nH]c3cn2)c1` [compound 263], the EC50 on CLK2 kinase amounted to 18 nM; at CLK3 kinase, 358 nM; in assay [2], 35.3 nM. Besides, the Emax in assay [1] came to 40.9%.
Turning to `CN1CCCCN(C)c2nccc3[nH]c(nc23)-c2n[nH]c3ccc(cc23)-c2cncc(c2)C1` [compound 617], the EC50 on CLK2 kinase amounted to 2 nM; at CLK3 kinase, 12 nM; in assay [1] it was 5000 nM; in assay [2], 577 nM. Further, in assay [1], the Emax is 231%.
